Reference: patent US9029337B2, “Modulation of factor 7 expression” (Isis Pharmaceuticals, Inc., priority 2007, dated 2015)
Strand notation (5' to 3'): a small letter for the sugar, then the base; units joined by * are phosphorothioate-linked, units joined directly phosphodiester-linked; [ ] holds rarer units or linkages, { } end groups; capitals alone tell only the bases. e = 2'-O-(2-methoxyethyl) (MOE); [5mC] = 5-methylcytosine; d = 2'-deoxy (DNA)

The substances below were run on human Factor 7 mRNA (assay: Antisense inhibition of human Factor 7 with short (14-mer) oligonucleotides in HepB3 cells, electroporation 1,000 nM). Settings: electroporation, 1,000 nM antisense oligonucleotide, approximately 24 hours, Factor 7 mRNA relative to untreated control cells.
Assay type: cell-based
Excerpt: Short antisense oligonucleotides (shortmers) were designed to target a Factor 7 nucleic acid. The shortmers in Table 17 were designed as 2-10-2 MOE gapmers. The gapmers are 14 nucleotides in length, wherein the central gap segment is comprised of 10 2′-deoxynucleotides and is flanked on both sides (in the 5′ and 3′ directions) by wings comprising 2 nucleotides each. Each nucleotide in the 5′ wing segment and each nucleotide in the 3′ wing segment has a 2′-MOE modification. The internucleoside linkages throughout each gapmer are phosphorothioate (P═S) linkages. All cytidine residues throughout each gapmer are 5-methylcytidines.
Shortmers were evaluated for their ability to reduce human Factor 7 mRNA in HepB3 cells and compared with one 5-10-5 chimeric oligonucleotide from Table 16, ISIS 407939. HepB3 cells at a density of 20,000 cells per well in a 96-well plate were transfected using electroporation with 1,000 nM of antisense oligonucleotide. After a treatment period of approximately 24 hours, RNA was isolated from the cells and Factor 7 mRNA levels were measured by real-time RT-PCR, as described herein. Factor 7 mRNA levels were adjusted according to total RNA content as measured by RIBOGREEN®. Results are presented in Table 17 as percent inhibition of Factor 7 mRNA, relative to untreated control cells. ISIS 407939 is the first oligonucleotide in Table 17 to which the shortmers were compared, and is marked by an asterisk (*).

Substance | % Inhibition [%]
435723 (antisense eG*e[5mC]*d[5mC]*dA*dG*d[5mC]*dA*dG*dA*dT*d[5mC]*dA*e[5mC]*eG) [compound 435723] | 68
435828 (antisense eG*eA*d[5mC]*d[5mC]*dT*dG*d[5mC]*d[5mC]*d[5mC]*dA*dT*dT*eT*eT) [compound 435828] | 0
435644 (antisense eT*eG*dG*dT*d[5mC]*d[5mC]*dT*dT*dG*d[5mC]*dA*dG*eG*eA) [compound 435644] | 30
435494 (antisense eA*eG*dA*d[5mC]*d[5mC]*d[5mC]*dT*dG*dG*dT*dG*dT*eA*e[5mC]) [compound 435494] | 47
435680 (antisense eG*eT*dG*d[5mC]*dT*d[5mC]*dG*d[5mC]*dT*dG*dA*dG*eG*eT) [compound 435680] | 52
435851 (antisense eA*e[5mC]*dA*dG*dG*d[5mC]*d[5mC]*dA*dG*dG*d[5mC]*dT*eG*eG) [compound 435851] | 0
435814 (antisense eT*eG*dA*d[5mC]*dG*dA*dG*dA*dG*dG*dA*d[5mC]*e[5mC]*eA) [compound 435814] | 31
435846 (antisense eT*eG*dG*dA*dG*dA*dG*dA*d[5mC]*d[5mC]*dA*dA*eT*eG) [compound 435846] | 7
435675 (antisense eT*eG*dT*d[5mC]*dG*dA*dA*dA*d[5mC]*dA*dG*dT*eG*eG) [compound 435675] | 24
435813 (antisense eG*eG*dA*dT*dG*d[5mC]*dA*d[5mC]*dA*d[5mC]*d[5mC]*dA*eG*eG) [compound 435813] | 55
435478 (antisense eG*eA*dG*dG*d[5mC]*dA*d[5mC]*dA*d[5mC]*dT*dG*dG*eT*e[5mC]) [compound 435478] | 43
435796 (antisense eT*eG*dA*d[5mC]*d[5mC]*dA*d[5mC]*dA*d[5mC]*dA*dT*dT*eT*e[5mC]) [compound 435796] | 30
435662 (antisense eT*eG*dG*dA*dT*dA*dT*dT*d[5mC]*dA*dA*d[5mC]*eT*eG) [compound 435662] | 19
435756 (antisense eT*eG*d[5mC]*d[5mC]*d[5mC]*dA*dG*dG*dA*d[5mC]*dG*dG*e[5mC]*e[5mC]) [compound 435756] | 20
435807 (antisense e[5mC]*eA*dG*dT*dA*d[5mC]*dT*dT*d[5mC]*d[5mC]*d[5mC]*dA*e[5mC]*eG) [compound 435807] | 35
435800 (antisense eG*eG*dA*d[5mC]*d[5mC]*d[5mC]*dA*dA*dA*dG*dT*dG*eG*eG) [compound 435800] | 0
435823 (antisense eT*eG*dA*dG*dT*d[5mC]*d[5mC]*d[5mC]*dA*dG*dG*d[5mC]*eT*eG) [compound 435823] | 41
435486 (antisense eG*eT*d[5mC]*d[5mC]*dT*dG*dG*dG*dT*d[5mC]*dA*dT*e[5mC]*eA) [compound 435486] | 64
435684 (antisense eA*eG*d[5mC]*dA*dG*d[5mC]*dG*d[5mC]*dG*dA*dT*dG*eT*e[5mC]) [compound 435684] | 56
435491 (antisense e[5mC]*e[5mC]*d[5mC]*dT*dG*dG*dT*dG*dT*dA*d[5mC]*dA*e[5mC]*e[5mC]) [compound 435491] | 61

Substance | % Inhibition [%]
435669 (antisense eG*eG*dA*d[5mC]*d[5mC]*dT*dG*d[5mC]*d[5mC]*dA*dT*dG*eG*eA) [compound 435669] | 36
435741 (antisense eA*eG*dG*dG*dT*dT*d[5mC]*dA*dT*dT*dT*d[5mC]*eA*eG) [compound 435741] | 6
435748 (antisense eT*e[5mC]*d[5mC]*d[5mC]*dA*dG*dG*dG*dT*d[5mC]*dT*d[5mC]*eT*eG) [compound 435748] | 18
435840 (antisense eG*eG*dG*d[5mC]*d[5mC]*d[5mC]*dG*d[5mC]*d[5mC]*dA*d[5mC]*dT*eG*eG) [compound 435840] | 0
435489 (antisense e[5mC]*eT*dG*dG*dT*dG*dT*dA*d[5mC]*dA*d[5mC]*d[5mC]*e[5mC]*e[5mC]) [compound 435489] | 72
435736 (antisense eA*eT*dG*d[5mC]*dA*dT*dG*dG*dT*dG*dA*dT*eG*e[5mC]) [compound 435736] | 50
435656 (antisense eA*e[5mC]*dT*dG*d[5mC]*dT*d[5mC]*dA*d[5mC]*dA*dG*d[5mC]*e[5mC]*eG) [compound 435656] | 58
435786 (antisense eA*eG*dG*dT*dG*dA*d[5mC]*d[5mC]*d[5mC]*dG*dT*dG*eA*eG) [compound 435786] | 68
435721 (antisense eT*eA*dA*dG*dG*dA*dG*dG*d[5mC]*dT*d[5mC]*dA*eG*e[5mC]) [compound 435721] | 12
435809 (antisense e[5mC]*eT*dG*dA*d[5mC]*dA*dA*dT*dG*dT*dG*dA*eT*eG) [compound 435809] | 5
435739 (antisense e[5mC]*eA*dT*d[5mC]*dT*d[5mC]*dA*dG*dA*dG*dG*dA*eT*eG) [compound 435739] | 5
435487 (antisense eA*eG*dT*d[5mC]*d[5mC]*dT*dG*dG*dG*dT*d[5mC]*dA*eT*e[5mC]) [compound 435487] | 36
435714 (antisense eA*e[5mC]*dT*d[5mC]*dG*dA*dT*dG*dT*dA*d[5mC]*dT*eG*eG) [compound 435714] | 3
435849 (antisense eT*eG*d[5mC]*d[5mC]*dG*dT*dA*dG*dT*dG*dG*d[5mC]*e[5mC]*eG) [compound 435849] | 31
435759 (antisense eG*eA*dG*d[5mC]*d[5mC]*dA*d[5mC]*dA*dG*dA*dG*d[5mC]*e[5mC]*eT) [compound 435759] | 11
435824 (antisense e[5mC]*e[5mC]*dT*dA*dA*dA*dG*dA*dT*dG*dA*dA*eT*e[5mC]) [compound 435824] | 21
435497 (antisense eG*eG*dG*dA*dG*dA*d[5mC]*d[5mC]*d[5mC]*dT*dG*dG*eT*eG) [compound 435497] | 27
435676 (antisense eG*eA*dT*dT*dT*dT*dG*dT*d[5mC]*dG*dA*dA*eA*e[5mC]) [compound 435676] | 11
435483 (antisense e[5mC]*eT*dG*dG*dG*dT*d[5mC]*dA*dT*d[5mC]*dA*dG*e[5mC]*e[5mC]) [compound 435483] | 82
435776 (antisense eG*eG*dG*dA*d[5mC]*dA*d[5mC]*dT*d[5mC]*dA*d[5mC]*dA*e[5mC]*eT) [compound 435776] | 51
